This note sets out measurements from ChEMBL document CHEMBL1201862, “PubChem BioAssay data set” (2004).

Test systems include KM12; NCI-H226; SN12C; EKVX; MDA-MB-435; SK-MEL-2; M14; SW-620; A549; SNB-19; T47D; Hs-578T; OVCAR-8; DU-145; Malme-3M; SK-OV-3.
Common to all, as to test: inhibition of tumour cell growth, NCI panel, 48 h

Structures are written as SMILES.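 A five-concentration, 48-hour dose response in 96-well plates underlies each endpoint, interpolated linearly between surrounding concentrations. GI50 = concentration required for 50% inhibition of growth.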 Calls of active or inactive are those of the source. Cut-off read from the data, not from the text of the source: active = GI50 up to about 1.1 µM and inactive = higher. A value given as a limit tells only on which side of the number the result lay.

`COc1ccccc1CNCc1nc2ccccc2[nH]1`: the GI50 is > 100 µM (inactive) in the experiment with KM12; > 100 µM (inactive) with NCI-H226; > 100 µM (inactive) in the experiment on SN12C; 92.9 µM (inactive) in the experiment with EKVX; > 100 µM (inactive) with MDA-MB-435; > 100 µM (inactive) with SK-MEL-2. For the same compound, the GI50 in the experiment with M14, in the experiment with SW-620, in the experiment with A549, with SNB-19, with T47D and in the experiment with Hs-578T was > 100 µM (inactive) in each case. Moreover, the GI50 in the experiment on OVCAR-8 and in the experiment with DU-145 was > 100 µM (inactive) throughout.
For `O=P(O)(Cc1ccccc1)c1ccccc1-c1ccccc1`, the GI50 was 77.3 µM (inactive) with KM12; > 100 µM (inactive) in the experiment on NCI-H226; > 100 µM (inactive) with SN12C; 41.9 µM (inactive) in the experiment with EKVX; > 100 µM (inactive) in the experiment with Malme-3M; > 100 µM (inactive) in the experiment on SK-MEL-2. For the same compound, the GI50 is > 100 µM (inactive) in the experiment with M14; > 100 µM (inactive) in the experiment on SW-620; 56 µM (inactive) in the experiment on A549; > 100 µM (inactive) with SNB-19; > 100 µM (inactive) in the experiment on T47D; > 100 µM (inactive) in the experiment on Hs-578T. Further, the GI50 in the experiment on SK-OV-3, with OVCAR-8 and with DU-145 was > 100 µM (inactive) throughout.
On to `Cc1nc2nnc(CCCCCCCCc3nnc4nc(C)[nH]n34)n2[nH]1`, for which the GI50 in the experiment on KM12 is 66.1 µM (inactive); in the experiment on NCI-H226 it was > 100 µM (inactive); with SN12C it was > 100 µM (inactive); with EKVX it was > 100 µM (inactive); in the experiment on MDA-MB-435, > 100 µM (inactive); in the experiment with Malme-3M it was > 100 µM (inactive). For the same compound, the GI50 in the experiment on SK-MEL-2, with M14, in the experiment with SW-620, with A549, with SNB-19 and in the experiment with SK-OV-3 was > 100 µM (inactive) in each case. Also, the GI50 with OVCAR-8 and in the experiment on DU-145 was > 100 µM (inactive) each time.
`O=C1CC(CC(O)[C@@H]2CCCC[C@@H]2O)CC(=O)N1c1ccccc1` (stereo partly drawn): the GI50 with KM12, in the experiment on NCI-H226, in the experiment with SN12C, in the experiment on MDA-MB-435, in the experiment with Malme-3M and in the experiment on M14 was > 100 µM (inactive) throughout. The GI50 in the experiment on SW-620, in the experiment with A549, in the experiment on SNB-19, with Hs-578T, in the experiment on OVCAR-8 and in the experiment with DU-145 was > 100 µM (inactive) throughout.
Regarding `CN(CCCCCl)P(=O)(OCc1ccc([N+](=O)[O-])o1)OC[C@H]1O[C@@H](n2cc(F)c(=O)[nH]c2=O)C[C@@H]1O` (stereo partly drawn), the GI50 was 12.4 µM (inactive) in the experiment on KM12; 3.59 µM (inactive) in the experiment with NCI-H226; 0.107 µM (active) in the experiment on SN12C; 35.4 µM (inactive) in the experiment on EKVX; 5.85 µM (inactive) in the experiment with MDA-MB-435; 3.25 µM (inactive) with Malme-3M. Besides, the GI50 in the experiment on SK-MEL-2 is 17.1 µM (inactive); in the experiment with M14, 1.04 µM (active); in the experiment with SW-620 it was 17.3 µM (inactive); with A549 it was 0.0301 µM (active); in the experiment on SNB-19 it was 1.85 µM (inactive); in the experiment with Hs-578T, 0.514 µM (active). For the same compound, the GI50 in the experiment with SK-OV-3 is 0.372 µM (active); in the experiment on OVCAR-8, 0.352 µM (active); with DU-145 it was 0.569 µM (active).
As to `Cc1ccc(S(=O)(=O)N(CCN)c2cc3c4c(c2)Oc2cccc5c2C4c2c(cccc2O3)O5)cc1`, the GI50 is > 100 µM (inactive) in the experiment with KM12; 12.4 µM (inactive) with NCI-H226; 34 µM (inactive) in the experiment on SN12C; 13.6 µM (inactive) with EKVX; 20.7 µM (inactive) with MDA-MB-435; 10.5 µM (inactive) in the experiment with Malme-3M. The GI50 with SK-MEL-2 was 22.8 µM (inactive); in the experiment with M14, 25.6 µM (inactive); with SW-620, 36.5 µM (inactive); in the experiment on A549, 25.7 µM (inactive); in the experiment with SNB-19, 29.4 µM (inactive); in the experiment with Hs-578T it was 17 µM (inactive). The GI50 with SK-OV-3 is 27 µM (inactive); in the experiment with OVCAR-8, 11.1 µM (inactive).
For the compound `NC(CCCCNC(=O)C(Cc1ccccc1)NC(=O)OCc1ccccc1)C(=O)NC(CCCCNC(=O)C(Cc1ccccc1)NC(=O)OCc1ccccc1)C(=O)NC(CCCCNC(=O)C(Cc1ccccc1)NC(=O)OCc1ccccc1)C(=O)NC(CCCCNC(=O)C(Cc1ccccc1)NC(=O)OCc1ccccc1)C(=O)NC(CCCCNC(=O)C(Cc1ccccc1)NC(=O)OCc1ccccc1)C(=O)NC(CCCCNC(=O)C(Cc1ccccc1)NC(=O)OCc1ccccc1)C(=O)O` (stereo not drawn), the GI50 in the experiment on NCI-H226, in the experiment on SN12C, with MDA-MB-435, in the experiment with Malme-3M, in the experiment on SK-MEL-2 and with M14 was > 100 µM (inactive) each time. For the same compound, the GI50 with SW-620, in the experiment with A549, in the experiment with SNB-19, with T47D, in the experiment with OVCAR-8 and with DU-145 was > 100 µM (inactive) in each case.
On to `Cc1nn(C(=O)Cc2ccccc2)c2c1C(c1ccc3ccccc3c1O)SC(=N)N2` (stereo not drawn), for which the GI50 with KM12, with NCI-H226, in the experiment on SN12C, in the experiment on EKVX, with MDA-MB-435 and in the experiment on M14 was > 100 µM (inactive) in each case. Also, the GI50 in the experiment on SW-620, with A549, in the experiment with SNB-19, with T47D, in the experiment with Hs-578T and in the experiment with SK-OV-3 was > 100 µM (inactive) in each case. For the same compound, the GI50 in the experiment with OVCAR-8 and in the experiment on DU-145 was > 100 µM (inactive) in each case.
As to `O=C1/C(=C/c2cccc([N+](=O)[O-])c2)N=C(c2ccccc2)N1c1nc2ccc(Sc3ccccc3)cc2[nH]1`, the GI50 in the experiment on KM12 was 31.8 µM (inactive); with NCI-H226 it was > 100 µM (inactive); with SN12C, 60 µM (inactive); in the experiment with EKVX, 62.8 µM (inactive); in the experiment with MDA-MB-435, 13.3 µM (inactive); with Malme-3M it was 63.1 µM (inactive). Moreover, the GI50 in the experiment with SK-MEL-2 was 30.3 µM (inactive); in the experiment on M14, 38.9 µM (inactive); in the experiment on SW-620 it was 37.2 µM (inactive); with A549, 55.2 µM (inactive); in the experiment with SNB-19, 80 µM (inactive); in the experiment on T47D, 47.2 µM (inactive). Also, the GI50 was 35.5 µM (inactive) in the experiment with Hs-578T, 34.4 µM (inactive) with SK-OV-3 and 45.1 µM (inactive) in the experiment on OVCAR-8.
In the case of `O=C(OCc1ccccc1)C(Cc1ccc(OCc2ccccc2)cn1)NC(=O)C(F)(F)F` (stereo not drawn), the GI50 in the experiment with KM12 is > 100 µM (inactive); in the experiment with NCI-H226, > 100 µM (inactive); in the experiment with SN12C, > 100 µM (inactive); in the experiment on EKVX it was > 100 µM (inactive); in the experiment on MDA-MB-435, 92.9 µM (inactive); in the experiment with Malme-3M, > 100 µM (inactive). Also, the GI50 with SW-620 was > 100 µM (inactive); with A549, 62.8 µM (inactive); in the experiment on SNB-19 it was > 100 µM (inactive); in the experiment with Hs-578T, > 100 µM (inactive); with OVCAR-8 it was > 100 µM (inactive); in the experiment with DU-145 it was > 100 µM (inactive).
For the compound `c1csc(-c2ccsc2-c2ccsc2)c1`, the GI50 in the experiment on KM12 is 48.4 µM (inactive); in the experiment on NCI-H226, 0.0264 µM (active); in the experiment with SN12C, > 100 µM (inactive); in the experiment on EKVX, 53.8 µM (inactive); in the experiment with MDA-MB-435, 39.3 µM (inactive); with SK-MEL-2 it was 17.5 µM (inactive). Besides, the GI50 is > 100 µM (inactive) in the experiment with M14; > 100 µM (inactive) in the experiment with SW-620; 43.1 µM (inactive) in the experiment on A549; > 100 µM (inactive) in the experiment on T47D; 90.2 µM (inactive) in the experiment on Hs-578T; > 100 µM (inactive) in the experiment with SK-OV-3. The GI50 is 91.2 µM (inactive) with OVCAR-8 and > 100 µM (inactive) in the experiment on DU-145.
As for `CCOC(=O)CC[C@H](NC(=O)N[C@H](C)c1ccccc1)C(=O)OCC`, the GI50 in the experiment on KM12 is 73.1 µM (inactive); with NCI-H226 it was > 100 µM (inactive); in the experiment on SN12C, 40.6 µM (inactive); in the experiment with EKVX, > 100 µM (inactive); with MDA-MB-435, 27.9 µM (inactive); in the experiment on SK-MEL-2, 23.4 µM (inactive). For the same compound, the GI50 was 14.8 µM (inactive) with M14; > 100 µM (inactive) with SW-620; > 100 µM (inactive) in the experiment on A549; > 100 µM (inactive) in the experiment on SNB-19; > 100 µM (inactive) in the experiment on SK-OV-3; > 100 µM (inactive) in the experiment with OVCAR-8. In addition, the GI50 in the experiment on DU-145 is 83.2 µM (inactive).
Take `COc1ccc2c(c1)C(=O)CC1c3cnccc3C(=O)N21` (stereo not drawn): the GI50 is > 100 µM (inactive) in the experiment on KM12; > 100 µM (inactive) in the experiment with NCI-H226; > 100 µM (inactive) in the experiment with SN12C; > 79.4 µM (inactive) in the experiment on EKVX; > 31.6 µM (inactive) in the experiment on MDA-MB-435; > 100 µM (inactive) in the experiment with Malme-3M. Moreover, the GI50 in the experiment with SK-MEL-2 was > 100 µM (inactive); with M14, > 100 µM (inactive); with SW-620, > 100 µM (inactive); in the experiment with A549 it was > 100 µM (inactive); in the experiment with SNB-19 it was > 72.1 µM (inactive); in the experiment on T47D, > 100 µM (inactive). Also, the GI50 in the experiment with SK-OV-3, with OVCAR-8 and in the experiment on DU-145 was > 100 µM (inactive) in each case.
On to `Cn1c2ccccc2n2c(=O)c3cc([N+](=O)[O-])ccc3c(C#N)c12`, for which the GI50 in the experiment on KM12, in the experiment with NCI-H226, in the experiment on EKVX, in the experiment on MDA-MB-435, in the experiment on SK-MEL-2 and in the experiment with M14 was > 100 µM (inactive) each time. The GI50 in the experiment on SW-620, in the experiment with A549, in the experiment with SNB-19, in the experiment with T47D, with Hs-578T and with SK-OV-3 was > 100 µM (inactive) each time. Besides, the GI50 in the experiment with OVCAR-8 and in the experiment with DU-145 was > 100 µM (inactive) throughout.
